# Measured values as given in US5216142A, “Anti-virals” (Efamol Holdings plc, priority 1989, dated 1993).
# Entries after “also recorded” stand apart in the source; their conditions may differ. Read-outs that look alike come from different tables or passages of the source.
# Legend:
# LAV-2ROD = assay: Anti-HIV activity assay, LAV-2ROD (MT-4 cells, MTT method); type: cell-based; details: for Selectivity index (SI): CD50/ED50, LAV-2ROD; for EC50: MT4, 120 h, read-out: ED50 (50% effective dose)
# Protocol: (§1) Results in relation to HIV virus were obtained by the method of Pauwels et al, Journal of Virological Methods 20, 309 to 321 (1988), as follows:
# (§2) MT-4 cells (2.5×10^4 /well) were infected with HIV (100 CCID50) and incubated in the presence of varying concentrations of the test compounds (added immediately after virus infection). After five days incubation at 37° C. in a CO2 incubator, the number of viable cells was assessed by the MTT (tetrazolium) method. Anti-viral activity and cytotoxicity of the compounds are expressed as ED50 (50% effective dose) and CD50 (50% cytotoxic dose), respectively. SI (selectivity index=CD50 /ED50.
# (§3) These are given in Table 8 and Table 9 below in relation to HTLV-IIIB and LAV-2ROD viruses.
# [1] = system: herpes simplex virus Type I (HSV I); assay: Inhibition of virus replication (plaque assay, BHK-21 cells); type: cell-based, Type 1, Troisbel strain; details: for Viral titre (inhibition of replication): control 9.0 × 10^8; for log reduction at 0.1 µg/mL / log reduction at 0.5 µg/mL: Human alphaherpesvirus 1, BHK-21, 24 h, read-out: Inhibition of viral replication (log10 reduction in virus titre); for log reduction at 0.1 µg/mL: 0.1 mg/l; for log reduction at 0.5 µg/mL: 0.5 mg/l
# Protocol: 1. Mono-layers of baby hamster kidney cells (BHK-21) are prepared in Petri dishes containing ETC medium (Eagle's minimal essential medium +10% tryptose phosphate broth +10% new born calf serum).
# 2. After incubation the medium is poured off to leave the layer of cells attached to the Petri dish. A solution containing virus, specifically herpes simplex virus Type I (HSV I) for example, in ETC medium is then added to the dish and incubated with intermittent rocking for one hour to allow the virus to adsorb to the cells of the mono-layer. Unadsorbed virus is then removed by pouring off the virus-containing medium and washing twice with new sterile medium. Then new medium is added to each Petri dish. At this stage various concentrations of drug can be added to the medium.
# 3. […] First the dishes are frozen to -70° C. and thawed to disrupt the mono-layer and break up the cells. Then the medium and the disrupted cells are transferred to bijou bottles and sonicated to break down the cells completely and to release all the virus particles the cells contain. The sonicated medium is then diluted with fresh sterile ETC medium to give concentrations of the original Petri dish fluid of 10^-2, 10^-4, 10^-6 and 10^-8.
# 4. The number of virus particles (plaque forming units) in the dilutions is then assayed. A standard number of BHK cells (usually 8×10^6) is added to 2 ml of the diluted solutions and incubated for one hour, with cautious, gentle shaking, and 8 ml of Eagle's minimal essential medium +2% new born calf serum + carboxymethyl cellulose is then added to the cell suspension. This medium has gelling properties which prevent spreading of the virus through the medium and which encourage the formation of discrete plaques in cell mono-layers. The medium from each dilution is then dispensed into Petri dishes and incubated for two to three days.
# 5. The number of plaques formed is then counted and the amount of active virus expressed as the number of plaque forming units (pfus) as follows. The medium is poured off and the cell mono-layer is fixed using 10% formol saline and stained with dilute carbol fuchsin. The number of plaques in each Petri dish is counted. Based on the dilutions, the number of plaque forming virus particles in the original solutions is calculated.
# In the Table, the figures are the concentration of viral particles in pfu/ml present in the cells + medium at the end of the replication stage (3).
# in vitro = type: cell-based; details: human, mt-4 cells, CD50 (50% cytotoxic dose)
# Protocol: as §1, §2
# MT-4 cells = assay: in vitro; type: cell-based; details: human, 120 h
# Protocol: as §1, §2
# HTLV-IIIB = assay: Anti-HIV activity assay, HTLV-IIIB (MT-4 cells, MTT method); type: cell-based; details: for Selectivity index (SI): CD50/ED50, HTLV-IIIB; for EC50: Human immunodeficiency virus 1, MT4, 120 h, MT-4 cells, five days, HTLV-IIIB, read-out: ED50 (50% effective dose)
# Protocol: as §1, §2, §3
# [2] = system: herpes simplex virus Type I; assay: Inactivation of virus (30 minutes incubation, plaque assay); type: cell-based, Type 1, Troisbel strain; details: for Virus titre (inactivation of virus): 30 minutes, control 5.4 × 10^4 (GLA-alcohol), 4.5 × 10^4 (GLA-AZT)
# Protocol: 1. A virus solution containing 2×10^5 pfu/ml is prepared in phosphate buffered saline (Dulbecco's A).
# 2. The compound to be tested is made up in Dulbecco's medium A in a suitable range of dilutions.
# 3. Equal volumes of the virus and drug solution are mixed together. Control solutions without drug are also used.
# 4. The virus and drug are incubated for an appropriate period of time, in this example, thirty minutes.
# 5. The numbers of active viral particles in the solution are assayed as in items 4 and 5 under A.
# The results are shown below (Table 6). In the Table, the figures are concentrations of viral particles present after incubation of the virus for 30 minutes with solutions of the drugs.
# herpes simplex = assay: Topical application to herpetic lesion; type: in vivo, human; details: ointment or cream 2% by weight, 1 to 5 mg/cm^2 three times daily for one week; after three days
# Protocol: Example (6) Ointment or cream for topical administration against herpes simplex, containing 2% by weight GLA-AZT. It may be applied to a human afflicted with a herpetic lesion at the afflicted sites at a rate of 1 to 5 mg/cm^2 three times daily for a period of one week.
# Absolute solubilities = type: physicochemical
# [3] = cited from earlier work
# viral polymerases = details: tested lacking the phosphate groups; cited from earlier work
# [4] = system: herpes simplex virus Type I (HSV I); details: cited from earlier work; for Activity against herpes viruses (in words): herpes zoster and herpes simplex
# [5] = system: herpes simplex virus Type I; details: known, e.g. E. de Klerk et al 1980; cited from earlier work
# adenosine deaminase = details: human plasma; cited from earlier work
# [6] = MT-4 cells, five days, LAV-2ROD
# [7] = chloroform, organic solvent or mixture, CHCl3 98 to 99% pure, with 1% balance ethanol to stabilise, read-out: Absolute solubility in CHCl3
# [8] = in water, read-out: Absolute solubility in water
Compound,Selectivity index (SI) (LAV-2ROD),EC50 (LAV-2ROD; [6]),Inhibition of viral replication (in words) ([1]; up to 100 mg/l),"% in chloroform phase (partition co-efficients, water/chloroform)",CC50 at 120 h (in vitro),CD50 (50% cytotoxic dose) (MT-4 cells),Selectivity index (SI) (HTLV-IIIB),EC50 (HTLV-IIIB),Virucidal activity / inactivation of herpes virus (in words) [2],solubility (Absolute solubilities; [7]),solubility (Absolute solubilities; [8]),log reduction at 0.1 µg/mL [1],log reduction at 0.5 µg/mL [1],Inactivation of virus (in words) ([2]; up to 50 mg/l),Activity against viral polymerases (in words) (viral polymerases),Activity against herpes viruses (in words) [4],further results
"CCCCC/C=C\C/C=C\C/C=C\CCCCC(=O)OC[C@H]1O[C@@H](n2cc(C)c(=O)[nH]c2=O)C[C@@H]1N=[N+]=[N-] [AK 1, GLA - 3'azido-3'-deoxythymidine]",9770,0.000858 µg/mL,no inhibition,> 99%,6.03 µg/mL,8.3825 µg/mL,7993,0.000754 µg/mL,virucidal,,,,,,,,"Viral titre (inhibition of replication) ([1]; 25 μg/ml (47.5 × 10^-6 molar)): 1.02 × 10^8 pfu/ml; Viral titre (inhibition of replication) ([1]; 50 μg/ml (95.0 × 10^-6 molar)): < 1.0 × 10^2 pfu/ml; Inhibition of herpes virus replication (in words) ([1]; listed as AZT-GLA): to inhibit its replication; Inhibition of herpes virus replication (in words) ([1]; listed as GLA-AZT): able to inhibit viral replication effectively; also recorded: gains the property of inhibiting herpes virus replication; Virus titre (inactivation of virus) ([2]; 5 μg/ml): 2.7 × 10^3; Virus titre (inactivation of virus) ([2]; 25 μg/ml): < 1.0 × 10^2; log reduction at 1 µg/mL ([2]; Human alphaherpesvirus 1, 0.5 h, 1 mg/l, read-out: Inactivation of virus (log10 reduction in virus titre)): 1; log reduction at 5 µg/mL ([2]; Human alphaherpesvirus 1, 0.5 h, 5 mg/l, read-out: Inactivation of virus (log10 reduction in virus titre)): 2; Virucidal activity / inactivation of herpes virus (in words) ([2]; listed as AZT-GLA): able both to inactivate the herpes virus; Virucidal activity / inactivation of herpes virus (in words) ([2]; listed as GLA-AZT): more effective; Reduction in the size of the lesion (herpes simplex): Reduction in the size of the lesion is noted"
CCCCC/C=C\C/C=C\C/C=C\CCCCC(=O)OCCOCn1cnc2c(=O)[nH]c(N)nc21 [AK 5],< 1,> 40 µg/mL,,> 99%,17.2 µg/mL,18.7751 µg/mL,< 1,> 40 µg/mL,lacking in this activity,> 50000 µg/mL,28 µg/mL,1,2.2,no inactivation,,,
"Cc1cn([C@H]2C[C@H](N=[N+]=[N-])[C@@H](CO)O2)c(=O)[nH]c1=O [AK 7, zidovudine, reference compound]",2928,0.00053 µg/mL,No inhibition,15%,1.54 µg/mL,1.5633 µg/mL,4131,0.000372 µg/mL,no effect,,,,,no inactivation,inactive,inactive,"Excreted unchanged into the urine ([3]; in vivo): Fifteen to twenty; Metabolised by hepatic glucuronidation ([3]; to 3'-azido-2'-3'-dideoxy-5'-glucuronyl thymidine): seventy five; Inhibition of herpes virus replication (in words) ([1]; listed as AZT): no effect; also recorded: not found; Effect on replication of herpes simplex virus (in words) ([4]; known, e.g. E. de Klerk et al 1980): no effect; Effect on inactivation of herpes simplex virus (in words) [5]: no effect"
"Cc1cn2c(nc1=O)O[C@@H]1C[C@H]2O[C@@H]1CO [AK 8, Anhydrothymidine, reference compound]",15,21.8 µg/mL,,4%,,,59,13.1 µg/mL,no effect,,,,,,,inactive,"Inhibition of herpes virus replication (in words) [1]: no effect; Inhibition of viral replication (in words) ([1]; concentration not given, Table 7): no inhibition; Inactivation of virus (in words) ([2]; 10 mg/l): no inactivation; log reduction at 25 µg/mL ([2]; Human alphaherpesvirus 1, 0.5 h, 25 mg/l, read-out: Inactivation of virus (log10 reduction in virus titre)): 0.7"
"Nc1nc2c(ncn2COCCO)c(=O)[nH]1 [AK 9, Acyclovir, reference compound]",< 1,,,1%,300 µg/mL,397.5805 µg/mL,< 1,> 1000 µg/mL,,6 µg/mL,1590 µg/mL,2,2.3,no inactivation,inactive,,EC50 (LAV-2ROD): > 10000 µg/mL
Nc1ncnc2c1ncn2[C@H]1CC[C@@H](CO)O1 [ddA],,,,,,,,,,,,,,,,,Conversion of ddA to ddI (adenosine deaminase): within minutes
